According to patent US6703420B1, “Amino-thio-acrylonitriles as MEK inhibitors” (Bristol-Myers Squibb Pharma Company, priority 1999, dated 2004):
Like-named read-outs stand apart in the source and are kept apart here. Values belong to the compound of their own block, whether it stands above or below them.

Experiments:
SMC = settings: serum starved SMC
keratinocyte = settings: pituitary growth factor extract, primarily FGF
ERK [1] = settings: fMLP- and LTB4-stimulated
activated MEK = settings: cited from earlier work; for type of inhibition, comparative kinetic analysis: activated MEK
neutrophils [2] = settings: U0126 at 10 mM; in response to IL-8 and LTB4
neutrophils [3] = system: neutrophils
b2 integrin = settings: U0126 at 10 mM
keratinocytes = keratinocytes stimulated with a variety of agents
Cox-2 [4] = system: Cox-2
[5] = system: freshly isolated human monocytes and THP-1 cells
RAS-transformed cells [6] = system: RAS-transformed cells
ERK [7] = settings: PMA/ionomycin, Con A stimulation, antigen with costimulation; cited from earlier work
T cell = settings: in response to TCR engagement; cited from earlier work
MMP = settings: IL-1b and TNF-a, fibroblasts; cited from earlier work
Swiss 3T3 cells = settings: PDGF-stimulated Swiss 3T3 cells; cited from earlier work
SMC (Smooth Muscle Cell) = settings: at concentrations which inhibit ERK activation; cited from earlier work
T cells = settings: cited from earlier work
ERK [8] = settings: agonists fMLP, IL-8, C5a and LTB4; cited from earlier work
neutrophils [9] = settings: in response to all agents (fMLP, IL-8, C5a, LTB4); cited from earlier work
neutrophils [10] = settings: cited from earlier work
HL-60 cells = settings: cited from earlier work
[11] = system: neutrophils, mast cells, or endothelial cells; settings: opsonized zymosan, aggregation of high affinity IgG receptor, or thrombin, respectively; cited from earlier work
Cox-2 [12] = settings: RAW 264.7 cells; cited from earlier work
Cox-2 [13] = settings: LPA-stimulated rat mesangial cells; cited from earlier work
5-lipoxygenase = settings: HL-60 cells; cited from earlier work
monocytes = settings: LPS treatment of monocytes; cited from earlier work
RAS-transformed cells [14] = settings: cited from earlier work
UM-SCC-1 and MDA-TV-138 = settings: controlled by EGF, TGFa and FGF; cited from earlier work
UM-SCC-1 cells = settings: cited from earlier work

melting point: 146.5 to 147.5 °C
SMILES: N#CC(=C(N)Sc1ccc(N)cc1)c1cccc(C(O)c2ccncc2)c1 (centres unmarked)

SMILES: N#CC(=C(/N)Sc1ccccc1N)/C(C#N)=C(\N)Sc1ccccc1N [Example U0126]
PDGF-dependent growth (SMC): prevents PDGF-dependent growth | keratinocyte proliferation (keratinocyte): blocks keratinocyte proliferation | ERK activation in neutrophils (ERK [1]): blocks ERK activation | type of inhibition, comparative kinetic analysis (activated MEK): non-competitive inhibitors of activated MEK | block of chemotaxis through a fibrin gel (neutrophils [2]): > 80% | NADPH-oxidase activity (neutrophils [3]): does not impair NADPH-oxidase activity | bacterial cell killing (neutrophils [3]): does not impair | blunting of up regulation of b2 integrin on the cell surface (b2 integrin): 50% | arachidonic acid release (keratinocytes): block arachidonic acid release | prostaglandin and leukotriene synthesis (keratinocytes): block | Cox-2 induction (Cox-2 [4]; TPA-stimulated fibroblasts): inhibits Cox-2 induction | serum induction of the Cox-2 transcript (Cox-2 [4]; fibroblasts, serum): does not impede serum induction of the Cox-2 transcript | LPS-induced cytokine production [5]: inhibitable | cell growth under normal culture conditions (RAS-transformed cells [6]; normal culture conditions): minimal effects on cell growth | growth of RAS-transformed cells in soft agar (RAS-transformed cells [6]; soft agar): impede the growth | growth of human tumor cell lines in soft agar (human tumor cell lines): can prevent cell growth in some cells, but not all | ERK activation in T cells (ERK [7]): prevents ERK activation | IL-2 synthesis (T cell): blocked | T cell activation and proliferation (T cell): blocked | MMP induction (MMP): block MMP induction

SMILES: COc1cccc(-c2cc(=O)c3ccccc3o2)c1N [PD 098059]
type of inhibition, comparative kinetic analysis (activated MEK): non-competitive inhibitors of activated MEK | MEK activity (activated MEK): inhibits MEK activity | thymidine incorporation into DNA (Swiss 3T3 cells): blocks thymidine incorporation into DNA | PDGF-BB-dependent SMC chemotaxis (SMC (Smooth Muscle Cell)): prevents PDGF-BB-dependent SMC (Smooth Muscle Cell) chemotaxis | IL-2 production (T cells; anti-CD3 antibody with anti-CD28 or PMA): blocked IL-2 production | T cell proliferation (T cells; anti-CD3 antibody, reversed by IL-2): inhibit T cell proliferation | production of IL-4, IL-5 and IL-13 (T cells; similarly stimulated T cell cultures): enhanced production | TNFa, IL-3 GM-CSF, IFN-g, IL-6 and IL-10 production (T cells; stimulated T cells): blocked | ERK activation in neutrophils (ERK [8]): blocked | neutrophil chemotaxis (neutrophils [9]): blocks neutrophil chemotaxis | superoxide anion production (neutrophils [10]): does not alter superoxide anion production | fMLP-stimulated superoxide generation (HL-60 cells): inhibited | arachidonic acid release [11]: blocks arachidonic acid release | LPS-induced Cox-2 expression (Cox-2 [12]): partially blocked | Cox-2 induction (Cox-2 [13]): inhibits Cox-2 induction | 5-lipoxygenase translocation from cytosol to nuclear membrane and activation (5-HETE production) (5-lipoxygenase): inhibited | cytokine production (monocytes): blocked | cell growth under normal culture conditions (RAS-transformed cells [14]; normal culture conditions): minimal effects on cell growth | growth of RAS-transformed cells in soft agar (RAS-transformed cells [14]; soft agar): impede the growth | urokinase secretion (UM-SCC-1 and MDA-TV-138): reduce urokinase secretion | cellular proliferation rate (UM-SCC-1 cells): not affected | in vitro invasiveness through an extracellular matrix-coated porous filter (UM-SCC-1 cells): blocked

melting point: 63.5 to 72 °C
SMILES: Cc1ccccc1C(C(C#N)=C(N)Sc1ccccc1N)c1ccc(Cl)cc1 (centres unmarked)
